Measurements taken from patent publication EP4682143A1, “PHARMACEUTICAL COMPOSITION CONTAINING EGFR INHIBITOR, AND PREPARATION METHOD THEREFOR AND USE THEREOF” (Convalife Pharmaceuticals Co., Ltd., priority 2023, dated 2024).
Read-outs that look alike come from different tables or passages of the source.

Legend:
[1] = test system: Cholangiocarcinoma PDX Model LD1-0060-200791; assay: Cholangiocarcinoma PDX model in vitro antiproliferation assay (CTG); assay type: cell-based; settings: for IC50: 144 h; for IC50 / Maximum Inhibition Rate (%) / Minimum Inhibition Rate (%): cultured 6 days, CTG; for Slope: slope of inhibition curve
Protocol: Tumor tissues were surgically excised from the subcutaneous tumors of tumor-bearing mice and immersed in HBSS buffer. Non-tumor and necrotic tissues were removed in a biosafety cabinet, and the tissues were cut into small pieces of 1-3 mm^3. Tumor pieces were digested with collagenase at 37°C for 1-2 hours. Single-cell suspensions were collected through a mesh, and centrifuged at 1200 rpm for 3 minutes to remove the supernatant. […] High-concentration drug stocks were diluted 1000× with BIO-MPM-1 medium to prepare 20× intermediate concentrations. Each well of a 96-well plate received 7.5 µL of the corresponding 20× drug solution or BIO-MPM-1 containing 2% DMSO (final DMSO concentration 0.2%). Then 135 µL of cell suspension was added per well. Cells were cultured continuously for 6 days at 37°C. Afterwards, 50 µL of CTG reagent was added per well. After mixing, 80 µL of the solution was measured in a multifunctional microplate reader for ATP content. Signals from each well were recorded to generate inhibition curves and calculate parameters such as IC50.
Inhibition curves were plotted using Xlfit (IDBS) to determine parameters including maximum inhibition, minimum inhibition, absolute IC50, relative IC50, and slope.
Proliferation rate (fold increase) was calculated as: Proliferation rate = (Vday6Control−Vday6Blank)/(Vday0Control−Vday0Blank) [formula]

[2] = test system: Ba/F3-EGFR-G719S cell line; assay: CellTiter-Glo (CTG) cell proliferation assay (Example A); assay type: cell-based; settings: 72 hours, highest test concentration 1 µM
Protocol: Due to its high sensitivity and simple workflow, it is currently a widely used cell viability assay.
Cell viability was assessed by trypan blue exclusion to ensure viability above 90%. • c) Cells were adjusted to the desired density with complete growth medium and seeded into 96-well plates at 3,000 cells per well in 90 µL medium. • d) The seeded 96-well plates were incubated at 37°C under 5% CO2. • e) Ten-fold stock solutions of each compound were prepared, with the highest test concentration of 1 µM. Nine concentrations were generated by four-fold serial dilution. Subsequently, 10 µL of each diluted compound was transferred into the corresponding wells of the 96-well plates, with triplicate wells for each concentration. • f) The compound-treated 96-well plates were incubated for an additional 72 hours at 37°C under 5% CO2, followed by CTG analysis. • g) The CTG reagent was thawed and the cell plates were equilibrated to room temperature for 30 minutes. • h) An equal volume of CTG reagent was added to each well. • i) The plates were shaken on a plate shaker for 5 minutes to induce cell lysis. • j) Plates were incubated at room temperature for 20 minutes to stabilize the luminescent signal. • k) Luminescence was measured and data were collected.
Data were analyzed using GraphPad Prism 7.0 software. Nonlinear sigmoidal regression was applied to fit the dose-response curves, from which IC50 values were calculated.
Cell viability (%) was determined according to the following equation: Cell viability(%) = (Lumcompound−Lummedium control)/(Lumvehicle control−Lummedium control) × 100% [formula]

Compound | IC50 ([1]; read-out: Absolute IC50) | IC50 ([1]; read-out: Relative IC50) | Maximum Inhibition Rate (%) [1] | Minimum Inhibition Rate (%) [1] | Slope [1] | IC50 [2]
CNCc1ccc(-c2cc3cc(F)cc(C(N)=O)c3o2)cc1 [CVL218] | 5770 nM | 7080 nM | 110.0% | 6.4% | 1.57 | –
c1cc(-c2nc(N3CCOCC3)c3oc4ccc(CN5CC6CC5CO6)cc4c3n2)c2cc[nH]c2c1 (stereo not drawn) [CVL237] | 3480 nM | 3410 nM | 99.5% | -10.0% | 9.51 | –
CCOc1cc2ncc(C#N)c(Nc3ccc(OCc4ccccn4)c(Cl)c3)c2cc1NC(=O)/C=C/CN(C)C.O=C(O)/C=C\C(=O)O [Compound A009, (E)-N-(4-(3-chloro-4-(pyridin-2-ylmethoxy)anilino)-3-cyano-7-ethoxyquinolin-6-yl)-4-(dimethylamino)but-2-enamide maleate, reference compound] | 3310 nM | 3260 nM | 99.2% | -10.0% | 13.13 | –
CCOc1cc2ncc(C#N)c(Nc3ccc(OCc4ccccn4)c(Cl)c3)c2cc1NC(=O)/C=C/CN1CC(N(C)C)C1 [Compound A0901, (E)-N-(4-((3-chloro-4-(pyridin-2-ylmethoxy)phenyl)amino)-3-cyano-7-ethoxyquinolin-6-yl)-4-(3-(dimethylamino)azetidin-1-yl)but-2-enamide] | – | – | – | – | – | 16.8 nM
CCOc1cc2ncc(C#N)c(Nc3ccc(OCc4ccccn4)c(Cl)c3)c2cc1NC(=O)/C=C/CN1CC(F)(F)C1 [Compound A0903, (E)-N-(4-((3-chloro-4-(pyridin-2-ylmethoxy)phenyl)amino)-3-cyano-7-ethoxyquinolin-6-yl)-4-(3,3-difluoroazetidin-1-yl)but-2-enamide] | – | – | – | – | – | 2.06 nM
C=C(CN1CC(N(C)C)C1)C(=O)Nc1cc2c(Nc3ccc(OCc4ccccn4)c(Cl)c3)c(C#N)cnc2cc1OCC [Compound A0905, N-(4-((3-chloro-4-(pyridin-2-ylmethoxy)phenyl)amino)-3-cyano-7-ethoxyquinolin-6-yl)-2-((3-(dimethylamino)azetidin-1-yl)methyl)propenamide] | – | – | – | – | – | 69.6 nM
C=C(CN1CCC(N(C)C)CC1)C(=O)Nc1cc2c(Nc3ccc(OCc4ccccn4)c(Cl)c3)c(C#N)cnc2cc1OCC [Compound A0906, N-(4-((3-chloro-4-(pyridin-2-ylmethoxy)phenyl)amino)-3-cyano-7-ethoxyquinolin-6-yl)-2-((4-(dimethylamino)piperidin-1-yl)methyl)propenamide] | – | – | – | – | – | 152 nM
(E)-N-(4-((3-chloro-4-(pyridin-2-ylmethoxy)phenyl)amino)-3-cyano-7-ethoxyquinolin-6-yl)-4-(3,3-difluoroazetidin-1-yl)but-2-enamide [Compound A0902] | – | – | – | – | – | 2.53 nM
(E)-N-(4-((3-chloro-4-(pyridin-2-ylmethoxy)phenyl)amino)-3-cyano-7-ethoxyquinolin-6-yl)-4-(methanesulfonamido)but-2-enamide [Compound A0904] | – | – | – | – | – | 2.18 nM
